# According to patent US7851474B2, “Dipiperazinyl ketones and related analogues” (Neurogen Corporation, priority 2005, dated 2010):
# Target: T1, chimeric human H3 receptor (Homo sapiens, UniProt Q9Y5N1, E19D)
# T1 construct: made in house; host or cells: Sf9 insect cells (baculovirus infection); P2 membrane preparation
# Assay: Chimeric human H3 receptor screening GTP binding assay (inhibition of histamine-stimulated GTP-gamma35S binding, Example 8)
# Format: biochemical
# Settings: 1 h; Table II "Ki", symbol "+": assay described in Example 8; read-out: percent inhibition of agonist-induced GTP-gammaS binding to H3
# In short: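 Sf9 membranes co-expressing the chimeric receptor and a heterotrimeric G-protein (35 μg protein) in Tris pH 7.4 buffer with 10 μM GDP; compound at 4 μM plus 1 μM histamine, 125 pM GTP-gamma35S, 60 min at room temperature. Filter-bound radioactivity read; non-specific binding defined with 10 uM GTP-gammaS; percent inhibition of histamine signal.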
# T1 sequence (Q9Y5N1 with tags, fused parts or gaps E19D): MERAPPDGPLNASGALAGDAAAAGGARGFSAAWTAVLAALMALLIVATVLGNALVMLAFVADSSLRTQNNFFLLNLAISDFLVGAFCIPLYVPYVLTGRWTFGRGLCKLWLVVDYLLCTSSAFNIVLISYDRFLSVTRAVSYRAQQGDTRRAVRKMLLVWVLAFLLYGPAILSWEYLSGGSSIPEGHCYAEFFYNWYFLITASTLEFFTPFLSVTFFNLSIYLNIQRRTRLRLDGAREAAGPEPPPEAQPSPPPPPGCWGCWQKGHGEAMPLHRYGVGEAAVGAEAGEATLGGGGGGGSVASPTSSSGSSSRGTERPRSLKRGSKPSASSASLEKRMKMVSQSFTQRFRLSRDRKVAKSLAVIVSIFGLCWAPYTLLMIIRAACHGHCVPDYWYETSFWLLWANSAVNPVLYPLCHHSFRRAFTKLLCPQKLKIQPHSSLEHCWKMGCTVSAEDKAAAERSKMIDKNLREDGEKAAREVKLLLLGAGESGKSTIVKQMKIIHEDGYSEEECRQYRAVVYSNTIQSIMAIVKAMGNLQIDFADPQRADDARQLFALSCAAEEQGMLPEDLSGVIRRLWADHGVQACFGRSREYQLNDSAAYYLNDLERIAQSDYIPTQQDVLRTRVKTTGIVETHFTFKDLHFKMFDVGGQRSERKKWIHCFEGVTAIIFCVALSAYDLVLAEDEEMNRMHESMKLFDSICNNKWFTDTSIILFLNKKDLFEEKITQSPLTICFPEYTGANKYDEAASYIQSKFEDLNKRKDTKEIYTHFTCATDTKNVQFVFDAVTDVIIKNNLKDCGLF
row,inhibition at 4 µM,Compound
1,> 90%,"COc1cc(C(=O)N2CCN(CC(=O)N3CCN(C4CCC4)CC3)CC2)nc2ccccc12 [Compound 895, 2-({4-[2-(4-cyclobutylpiperazin-1-yl)-2-oxoethyl]piperazin-1-yl}carbonyl)-4-methoxyquinoline]"

# Same assay, conditions: 1 h; Table II; assay of Example 8; "+" in Ki; read-out: percent inhibition of agonist-induced GTP-gammaS binding to H3
row,Compound,inhibition at 4 µM
1,O=C(CN1CCN(C(=O)c2cc(-c3ccccc3)nc3ccccc23)CC1)N1CCN(C2CCC2)CC1 [Compound 1089],> 90%
2,O=C(CN1CCN(C(=O)c2c(-c3ccccc3)nnc3ccccc23)CC1)N1CCN(C2CCC2)CC1 [Compound 1090],> 90%

# Continued, values first:
row,inhibition at 4 µM,Compound
1,> 90%,"O=C(CN1CCN(C(=O)c2cnc3ccccc3c2)CC1)N1CCN(C2CCC2)CC1 [Compound 985, 3-({4-[2-(4-cyclobutylpiperazin-1-yl)-2-oxoethyl]piperazin-1-yl}carbonyl)quinoline]"
2,> 90%,CNc1ccc(C(=O)N2CCN(CC(=O)N3CCN(C4CCC4)CC3)CC2)cc1 [Compound 1088]

# Same assay, conditions: 1 h; assay of Example 8; "+" in Ki of Table II; read-out: percent inhibition of agonist-induced GTP-gammaS binding to H3
row,inhibition at 4 µM,Compound
1,> 90%,"Nc1ccc(Cl)cc1C(=O)N1CCN(CC(=O)N2CCN(C3CCC3)CC2)CC1 [Compound 1151, 4-chloro-2-({4-[2-(4-cyclobutylpiperazin-1-yl)-2-oxoethyl]piperazin-1-yl}carbonyl)aniline]"
2,> 90%,"Cc1ccc(C(=O)N2CCN(CC(=O)N3CCN(C4CCC4)CC3)CC2)cc1N [Compound 1153, 5-({4-[2-(4-cyclobutylpiperazin-1-yl)-2-oxoethyl]piperazin-1-yl}carbonyl)-2-methylaniline]"
3,> 90%,"Nc1cc(Cl)ccc1C(=O)N1CCN(CC(=O)N2CCN(C3CCC3)CC2)CC1 [Compound 1163, 5-chloro-2-({4-[2-(4-cyclobutylpiperazin-1-yl)-2-oxoethyl]piperazin-1-yl}carbonyl)aniline]"
4,> 90%,"CSc1ncc(Cl)c(C(=O)N2CCN(CC(=O)N3CCN(C4CCC4)CC3)CC2)n1 [Compound 1164, 5-chloro-4-({4-[2-(4-cyclobutylpiperazin-1-yl)-2-oxoethyl]piperazin-1-yl}carbonyl)-2-(methylthio)pyrimidine]"
